Measured values from patent US20080293802A1, “Chemical Compounds” (Smithline Beecham Corporation, priority 2005, published 2008).

Target: T1, Recombinant human IKKβ (IKK2) (Homo sapiens, UniProt O14920)
T1 construct: Recombinant human IKKβ (residues 1-737); GST (C); made in house
T1 sequence (O14920 1-737): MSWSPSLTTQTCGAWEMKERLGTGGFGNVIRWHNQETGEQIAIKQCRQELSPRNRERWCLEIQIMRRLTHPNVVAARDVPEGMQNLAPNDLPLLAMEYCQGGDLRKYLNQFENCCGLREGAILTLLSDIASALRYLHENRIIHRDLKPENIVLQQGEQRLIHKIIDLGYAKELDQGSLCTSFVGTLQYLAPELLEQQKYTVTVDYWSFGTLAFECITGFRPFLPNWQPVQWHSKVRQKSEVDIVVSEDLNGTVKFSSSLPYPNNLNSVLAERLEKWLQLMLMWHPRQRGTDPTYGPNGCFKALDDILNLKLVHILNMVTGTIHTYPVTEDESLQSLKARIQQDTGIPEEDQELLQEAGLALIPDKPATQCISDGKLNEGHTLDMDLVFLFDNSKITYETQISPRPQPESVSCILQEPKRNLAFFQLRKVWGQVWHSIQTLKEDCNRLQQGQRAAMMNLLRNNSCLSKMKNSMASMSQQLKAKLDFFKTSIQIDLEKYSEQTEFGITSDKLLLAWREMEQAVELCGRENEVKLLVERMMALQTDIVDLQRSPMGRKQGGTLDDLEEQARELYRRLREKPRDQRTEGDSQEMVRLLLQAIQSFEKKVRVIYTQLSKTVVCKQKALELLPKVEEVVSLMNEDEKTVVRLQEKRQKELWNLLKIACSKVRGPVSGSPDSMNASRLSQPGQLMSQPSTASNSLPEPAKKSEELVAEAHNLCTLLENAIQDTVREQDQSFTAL
Experiment: IKK2 Assay (TR-FRET, phosphorylation of GST-IκBα)
Type: biochemical
Settings: recombinant human IKKβ (residues 1-737), 5 nM; GST-IκBα 25 nM, ATP 1 μM; 30 minutes at room temperature; read-out: pIC50 against IKK2 (converted)
Description: Recombinant human IKKβ (residues 1-737) was expressed in baculovirus as a C-terminal GST-tagged fusion protein, and its activity was assessed using a time-resolved fluorescence resonance energy transfer (TR-FRET) assay. Briefly, IKK2 (5 nM final) diluted in assay buffer (50 mM HEPES, 10 mM MgCl2, 1 mM CHAPS pH 7.4 with 1 mM DTT and 0.01% w/v BSA) was added to wells containing various concentrations of compound or DMSO vehicle (3% final). The reaction was initiated by the addition of GST-IκBα substrate (25 nM final)/ATP (1 μM final), in a total volume of 30 μl. The reaction was incubated for 30 minutes at room temperature, then terminated by the addition of 15 μl of 50 mM EDTA. Detection reagent (15 μl) in buffer (100 mM HEPES pH 7.4, 150 mM NaCl and 0.1% w/v BSA) containing antiphosphoserine-IκBα-32/36 monoclonal antibody 12C2 (Cell Signalling Technology, Beverly Mass., USA) labelled with W-1024 europium chelate (Wallac OY, Turku, Finland), and an APC-labelled anti-GST antibody (Prozyme, San Leandro, Calif., USA) was added and the reaction was further incubated for 60 minutes at room temperature. The degree of phosphorylation of GST-IκBα was measured using a Packard Discovery plate reader (Perkin-Elmer Life Sciences, Pangbourne, UK) as a ratio of specific 665 nm energy transfer signal to reference europium 620 nm signal.

| IC50 | SMILES |
| --- | --- |
| ≤ 10 µM | NC(=O)c1cc2cc(-c3ccccc3)cc(C(N)=O)c2[nH]1 [Example 2, 5-phenyl-1H-indole-2,7-dicarboxamide] |
| ≤ 10 µM | Cc1cc2cc(-c3ccccc3)cc(C(N)=O)c2[nH]1 [Example 1, 2-methyl-5-phenyl-1H-indole-7-carboamide] |
